Patent US8206983B2, “In vitro methods for the induction and maintenance of plant cell lines as single suspension cells with intact cell walls” (Dow AgroSciences, LLC., priority 2006, dated 2012)

Experiments:
[1] = system: JTNT1 tobacco cell suspension cultures; assay: Single cell production, growth and viability of JTNT1 suspension with microtubule inhibitors in 24-well plates, glycerol medium; settings: for cell growth and appearance: all concentrations tested (1, 3, 10 μM)
Description: JTNT1 Tobacco Suspension Cultures. […] Furthermore, Suc stabilizes preformed microtubules, making an examination of the effects of MTIs on preformed microtubules unfeasible. In addition, sucrose increases solution viscosity substantially, and tubulin polymerization is altered at least in part by slowed dimer and polymer diffusion rates. Thus, it was important to have low or no sucrose in medium where the single cell production. Thus, a new JTNT1 line habituated in Glycerol was developed for this study.
Each of the 24 well contained 1 ml of JTNT1 suspension. The 24-well plates were kept on an Innova 4900 Multi Environmental Shaker with special clamps and harnesses to allow stacking of plates up to 6 plates high. The plates were rotated at a speed of 130 rpm and 25° C. in dark.
Single Cell Production. Each compound was dissolved in dimethyl sulfoxide (DMSO) to provide 0.5 Molar stock solutions. One ml of JTNT1 suspension (1 ml PCV/20 ml tobacco media) was added to each well of the 24 well plates. To each well an individual chemical was added to achieve the desired concentrations (at 1 μM, 3 μM, and 10 μM). The cultures were allowed to grow for 7 days on the Innova Shaker. Each day turbidity measurements was taken on each well using a SpectraMax M2^e by Molecular devices (set at 600 absorbance, with 5 readings taken per well). On day 7, cells were observed using the Leica 5000 inverted confocal microscope for formation of single cells and cell viability.

[2] = system: plant tubulin; settings: 1 M Sucrose; cited from earlier work
[3] = system: JTNT1 single cells; assay: Cytological characterization of JTNT1 single cells (nucleus, cell wall); assay type: cell-based, tobacco
Description: JTNT1 Tobacco single cell initiation and sample collection. JTNT1 Tobacco single cells were initiated in two different media, NT1B with 3% sucrose (NT1B-Suc) and NT1B with 3% glycerol (NT1B-Gly) in 3.5 day culture cycle. […] The flasks were closed with a foam stopper and cultured on a orbital shaker at 130 rpm in dark at 25-28° C. The cultures were sub cultured every 3.5 days up to a period of 14 days. Four samples (Suc/Gly grown cells and the control cultures in Suc/Gly media with 0.2% DMSO) of the cultures were harvested every 3.5 days by spinning the suspension at 3000 rpm for 5 minutes. The samples were immediately lyophilized to prevent any cell oxidation to minimize any deleterious effect on the samples introduced post harvest. Single cells were stained with Hoechst nuclear stain for an hour and observed under scopes for any nuclear anomaly up to two culture cycles.
Cell viability and Cell wall. Established JTNT1 single cells were used to stain with FUN1 (F-7030, Molecular Probes, Invitrogen Inc) cell stain which is used for viability test in yeast, and this contains two color fluorescent probes. The third one, Calcofluor White M2R which stains cell wall, was used to stain the cells. For JTNT1 single cells, […] of FUN1 stain is added and the culture was incubated at room temperature for 20 mins 1 mL fresh culture media was added to wash the excess stain and centrifuged at 3000 rpm; the supernantant was discarded. The cells were examined and imaged on Zeiss ApoTome microscope.
Nucleus. Single cells were stained with Hoechst nuclear stain for an hour and observed on Zeiss Apo Tome for any nuclear anomaly up to two culture cycles. Crystal violet stain was also used as a live nuclear stain for observing nuclear structure for ploidy characterization

[4] = system: JTNT1 cells; assay: Plasma membrane staining of single cells with FM4-64; assay type: cell-based, tobacco; settings: 100 nM
Description: Plasmamembrane. JTNT1 cells were incubated with 5 μm FM4-64 (styryl dye) for 5 minutes and washed with fresh media. The culture was centrifuged at 3000 rpm, and fresh media was added. The cells were visualized on Zeiss ApoTome microscope.

In the case of `CSC(=O)c1c(C(F)F)nc(C(F)(F)F)c(C(=O)SC)c1CC(C)C` [Dithiopyr], the single cell formation ([1]; 1 μM and 3 μM) is reported as “single cells were formed”, the single cell formation ([1]; 10 μM) is reported as “the concentration of the cells was low” and the “cell growth and appearance” value [1] is reported as “healthy, growing and yellow in color”.
For `COP(=S)(NC(C)C)Oc1ccc(C)cc1[N+](=O)[O-]` (stereo not drawn) [APM, Amiprophosmethyl], the “effect on plant microtubule length” value [2] is listed as “concentration-dependent decrease in plant microtubule length”, the “concentration at which single cells were formed” value [1] is listed as 1 to 10 µM and the cell growth ([1]; 1 μM and 3 μM) is listed as “grew well”. For the same molecule, the “effect at higher concentration” value ([1]; above 1-10 μM) was “remarkable reduction of growth and cell division inhibition” and the “cell viability (Fluorescein diacetate and Propidium Iodine stains)” value ([1]; tobacco, 7 days) was “up to 70%”.
With `COc1ccc([C@H]2CC=CC[C@@H]2[N+](=O)[O-])c(OC)c1OC` (racemic) [trimethoxyphenylcyclohexene, (±)-4S,5R-4-nitro-5-(2,3,4-trimethoxyphenyl)-cyclohexene] the “nuclear organization of single cells” value ([3]; 1 uM, 3.5 d cultures) was “single nucleus”, the nuclear ploidy ([3]; 14 days of continuous treatments) was “low or no nuclear ploidy percentage” and the bleaching of cells [1] was “mild bleaching”. The single cell formation ([1]; 1 μM, 3 μM, and 10 μM) was “promoted the formation of single cells”, the cell viability ([1]; across all levels (1 μM, 3 μM, 10 μM)) was 80-90% and the “cell growth and appearance” value [1] was “grew very well”.
For `CCC(C)(CC)c1cc(NC(=O)c2c(OC)cccc2OC)on1` [Isoxeben], the “FM4-64 staining of single cells” value [4] was “extensive vesicle on the surface”.
